# Source: PubChem BioAssay AID330 (DTP/NCI, 2004)
# “And” between values parts separate entries of the source, which are not always exact repeats. Equal entries are not always repeated. Toxic doses and inconclusive results are not listed.
# System: P388 leukemia ip, CD2F1 mice, survival T/C
# Assay: NCI In Vivo Anticancer Drug Screen. Data for tumor model P388 Leukemia (intraperitoneal) in CD2F1 (CDF1) mice
# Settings: endpoint: median survival time, higher = longer survival
# Outline: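 Mice carrying the transplanted tumor received test compound or vehicle. Survival was recorded in each group, and the value is the treated-group measurement divided by that of the vehicle-treated control group.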
# [1] = dose: 12.5 mg/kg/injection, schedule: Q01DX009 (ip), vehicle: Klucel (hydroxypropylcellulose) (HPC)
# [2] = dose: 25.0 mg/kg/injection, schedule: Q01DX009 (ip), vehicle: Klucel (hydroxypropylcellulose) (HPC)
# [3] = dose: 50.0 mg/kg/injection, schedule: Q01DX009 (ip), vehicle: Klucel (hydroxypropylcellulose) (HPC)
# [4] = dose: 25.0 mg/kg/injection, schedule: Q04DX003 (ip), vehicle: Klucel (hydroxypropylcellulose) (HPC)
# [5] = dose: 50.0 mg/kg/injection, schedule: Q04DX003 (ip), vehicle: Klucel (hydroxypropylcellulose) (HPC)
# [6] = dose: 100.0 mg/kg/injection, schedule: Q04DX003 (ip), vehicle: Klucel (hydroxypropylcellulose) (HPC)
structure (smiles),measurement,setting,value
CN(C)CCOc1ccccc1NC1=C(Cl)C(=O)C(Nc2ccccc2OCCN(C)C)=C(Cl)C1=O,T/C,"dose: 3.12 mg/kg/injection, schedule: Q01DX005 (ip), vehicle: saline",96 % of control and 97 % of control
same,T/C,"dose: 6.25 mg/kg/injection, schedule: Q01DX005 (ip), vehicle: saline",105 % of control and 106 % of control and 98 % of control
same,T/C,"dose: 12.5 mg/kg/injection, schedule: Q01DX005 (ip), vehicle: saline",110 % of control and 114 % of control and 116 % of control
same,T/C,"dose: 25.0 mg/kg/injection, schedule: Q01DX005 (ip), vehicle: saline",105 % of control and 117 % of control and 121 % of control
CC(C)(C)C1=NC=CNC(C(F)(F)F)=C1,T/C,[1],94 % of control
same,T/C,[2],100 % of control
same,T/C,[3],94 % of control
CN1C(=O)c2ccccc2NC(=O)C12O[C@@H]2c1ccccc1 (some centres not stated),T/C,"dose: 1.88 mg/kg/injection, schedule: Q01DX005 (ip), vehicle: DMSO",100 % of control
same,T/C,"dose: 3.75 mg/kg/injection, schedule: Q01DX005 (ip), vehicle: DMSO",106 % of control
same,T/C,"dose: 7.5 mg/kg/injection, schedule: Q01DX005 (ip), vehicle: DMSO",106 % of control
same,T/C,"dose: 15.0 mg/kg/injection, schedule: Q01DX005 (ip), vehicle: DMSO",114 % of control
COC1(OC)/C(=N/NS(=O)(=O)c2ccc(C)cc2)C2CC1C1CC21 (configuration not stated),T/C,"dose: 25.0 mg/kg/injection, schedule: Q01DX009 (ip), vehicle: saline with Tween-80",98 % of control
same,T/C,"dose: 50.0 mg/kg/injection, schedule: Q01DX009 (ip), vehicle: saline with Tween-80",96 % of control
same,T/C,"dose: 100.0 mg/kg/injection, schedule: Q01DX009 (ip), vehicle: saline with Tween-80",96 % of control
COc1ccc2c(c1OC)C(=O)O/C2=C\c1cc2c(cc1CCN(C)C)OCO2,T/C,"dose: 12.5 mg/kg/injection, schedule: Q01DX001 (ip), vehicle: saline + alcohol",99 % of control
same,T/C,"dose: 25.0 mg/kg/injection, schedule: Q01DX001 (ip), vehicle: saline + alcohol",98 % of control
same,T/C,"dose: 50.0 mg/kg/injection, schedule: Q01DX001 (ip), vehicle: saline + alcohol",99 % of control
COc1ccc(-c2cc(C(=O)Nc3cc(Cl)cc(Cl)c3)c3ccccc3n2)cc1,T/C,"dose: 50.0 mg/kg/injection, schedule: Q01DX005 (ip), vehicle: saline with Tween-80",91 % of control
same,T/C,"dose: 100.0 mg/kg/injection, schedule: Q01DX005 (ip), vehicle: saline with Tween-80",93 % of control
same,T/C,"dose: 200.0 mg/kg/injection, schedule: Q01DX005 (ip), vehicle: saline with Tween-80",91 % of control
CCN(CC)C1=NS(=O)(=O)c2ccccc2C(c2ccccc2)=C1C,T/C,[4],99 % of control
same,T/C,[5],99 % of control
same,T/C,[6],100 % of control and 95 % of control
same,T/C,"dose: 400.0 mg/kg/injection, schedule: Q04DX003 (ip), vehicle: Klucel (hydroxypropylcellulose) (HPC)",87 % of control
CCCCCCCCNC(=O)C1C(=O)N(CCCCCCCC)C(=O)/C1=N/N (configuration not stated),T/C,"dose: 100.0 mg/kg/injection, schedule: Q04DX002 (ip), vehicle: saline with Tween-80",100 % of control
same,T/C,"dose: 200.0 mg/kg/injection, schedule: Q04DX002 (ip), vehicle: saline with Tween-80",92 % of control
CCN(CC)CCC(=O)Nc1cccc2c1C(=O)c1c(c(O)c3ccccc3c1O)C2=O,T/C,"dose: 6.25 mg/kg/injection, schedule: Q04DX003 (ip), vehicle: Klucel (hydroxypropylcellulose) (HPC)",100 % of control
same,T/C,"dose: 12.5 mg/kg/injection, schedule: Q04DX003 (ip), vehicle: Klucel (hydroxypropylcellulose) (HPC)",100 % of control
same,T/C,[4],104 % of control
same,T/C,"dose: 25.0 mg/kg/injection, schedule: Q04DX003 (ip), vehicle: saline",98 % of control
same,T/C,[5],100 % of control
same,T/C,"dose: 50.0 mg/kg/injection, schedule: Q04DX003 (ip), vehicle: saline",92 % of control
same,T/C,[6],106 % of control
same,T/C,"dose: 100.0 mg/kg/injection, schedule: Q04DX003 (ip), vehicle: saline",108 % of control
same,T/C,"dose: 200.0 mg/kg/injection, schedule: Q04DX003 (ip), vehicle: saline",100 % of control
CC(=O)Nc1ccc(C(=O)N2C(=N)C(C#N)=C(O)/C2=C\c2ccc(Cl)c(Cl)c2)cc1,T/C,"dose: 60.0 mg/kg/injection, schedule: Q01DX005 (ip), vehicle: saline",100 % of control
same,T/C,"dose: 120.0 mg/kg/injection, schedule: Q01DX005 (ip), vehicle: saline",100 % of control
same,T/C,"dose: 240.0 mg/kg/injection, schedule: Q01DX005 (ip), vehicle: saline",103 % of control
O=C(Nc1ccccc1)OCC[N+](CCO)(CCO)CCO,T/C,"dose: 60.0 mg/kg/injection, schedule: Q01DX005 (ip), vehicle: water",100 % of control
same,T/C,"dose: 120.0 mg/kg/injection, schedule: Q01DX005 (ip), vehicle: water",100 % of control
same,T/C,"dose: 240.0 mg/kg/injection, schedule: Q01DX005 (ip), vehicle: water",99 % of control
NC1=NC(=O)C(c2ccccc2)S1 (configuration not stated),T/C,[1],103 % of control
same,T/C,[2],99 % of control
same,T/C,[3],113 % of control
same,T/C,"dose: 100.0 mg/kg/injection, schedule: Q01DX009 (ip), vehicle: Klucel (hydroxypropylcellulose) (HPC)",105 % of control
Cc1nc2c(n1C)C(=O)c1nc[nH]c(=O)c1C2=O,T/C,"dose: 1.75 mg/kg/injection, schedule: Q01DX005 (ip), vehicle: water",102 % of control
same,T/C,"dose: 3.5 mg/kg/injection, schedule: Q01DX005 (ip), vehicle: water",92 % of control
same,T/C,"dose: 7.0 mg/kg/injection, schedule: Q01DX005 (ip), vehicle: water",96 % of control
same,T/C,"dose: 14.0 mg/kg/injection, schedule: Q01DX005 (ip), vehicle: water",96 % of control
Cc1cc([N+](=O)[O-])ccc1NC(=O)OC(C)C,T/C,"dose: 60.0 mg/kg/injection, schedule: Q01DX005 (ip), vehicle: saline with Tween-80",99 % of control
same,T/C,"dose: 120.0 mg/kg/injection, schedule: Q01DX005 (ip), vehicle: saline with Tween-80",111 % of control
same,T/C,"dose: 240.0 mg/kg/injection, schedule: Q01DX005 (ip), vehicle: saline with Tween-80",99 % of control
COc1cccc2c1C(=O)c1c(O)c3c(c(O)c1C2=O)C[C@@](O)(/C(CO)=N/NC(=O)c1ccccc1)C[C@@H]3OC1CC(N)C(O)C(C)O1 (some centres not stated),T/C,"dose: 0.12 mg/kg/injection, schedule: Q01DX009 (ip), vehicle: water",103 % of control
same,T/C,"dose: 0.25 mg/kg/injection, schedule: Q01DX009 (ip), vehicle: water",99 % of control
same,T/C,"dose: 0.5 mg/kg/injection, schedule: Q01DX009 (ip), vehicle: water",150 % of control
same,T/C,"dose: 0.8 mg/kg/injection, schedule: Q01DX009 (ip), vehicle: saline",112 % of control
same,T/C,"dose: 1.0 mg/kg/injection, schedule: Q01DX009 (ip), vehicle: water",154 % of control and 169 % of control
same,T/C,"dose: 1.4 mg/kg/injection, schedule: Q01DX009 (ip), vehicle: saline",112 % of control
same,T/C,"dose: 2.0 mg/kg/injection, schedule: Q01DX009 (ip), vehicle: water",154 % of control and 171 % of control and 190 % of control
same,T/C,"dose: 2.3 mg/kg/injection, schedule: Q01DX009 (ip), vehicle: saline",113 % of control
same,T/C,"dose: 3.9 mg/kg/injection, schedule: Q01DX009 (ip), vehicle: saline",118 % of control
same,T/C,"dose: 4.0 mg/kg/injection, schedule: Q01DX009 (ip), vehicle: water",172 % of control and 180 % of control and 212 % of control
same,T/C,"dose: 6.0 mg/kg/injection, schedule: Q04DX003 (ip), vehicle: water",96 % of control
same,T/C,"dose: 8.0 mg/kg/injection, schedule: Q01DX009 (ip), vehicle: water",201 % of control and 230 % of control and 390 % of control
same,T/C,"dose: 8.6 mg/kg/injection, schedule: Q01DX009 (ip), vehicle: saline",163 % of control
same,T/C,"dose: 10.8 mg/kg/injection, schedule: Q01DX009 (ip), vehicle: saline",187 % of control
same,T/C,"dose: 18.0 mg/kg/injection, schedule: Q01DX009 (ip), vehicle: saline",90 % of control
same,T/C,"dose: 96.0 mg/kg/injection, schedule: Q04DX003 (ip), vehicle: water",114 % of control
Cn1ncc(N)nc1=S,T/C,"dose: 50.0 mg/kg/injection, schedule: Q01DX005 (ip), vehicle: suspension in saline",101 % of control
same,T/C,"dose: 100.0 mg/kg/injection, schedule: Q01DX005 (ip), vehicle: suspension in saline",97 % of control
same,T/C,"dose: 200.0 mg/kg/injection, schedule: Q01DX005 (ip), vehicle: suspension in saline",105 % of control
Cn1c2c(c3ccccc31)-c1ncncc1CC2,T/C,"dose: 50.0 mg/kg/injection, schedule: Q01DX005 (ip), vehicle: saline + Tween-80 + alcohol",106 % of control
same,T/C,"dose: 100.0 mg/kg/injection, schedule: Q01DX005 (ip), vehicle: saline + Tween-80 + alcohol",92 % of control
same,T/C,"dose: 200.0 mg/kg/injection, schedule: Q01DX005 (ip), vehicle: saline + Tween-80 + alcohol",103 % of control
Nc1cc(Cl)c2[nH]cnc2n1,T/C,"dose: 25.0 mg/kg/injection, schedule: Q01DX005 (ip), vehicle: distilled water + Tween-80",102 % of control
same,T/C,"dose: 50.0 mg/kg/injection, schedule: Q01DX005 (ip), vehicle: distilled water + Tween-80",111 % of control
same,T/C,"dose: 200.0 mg/kg/injection, schedule: Q01DX005 (ip), vehicle: distilled water + Tween-80",152 % of control
